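Values below derive from 48-hour exposures of cells grown in 96-well plates, with endpoints linearly interpolated between the two concentrations bracketing the appropriate inhibition level. The concentration for 50% growth inhibition is given as GI50.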 The source made the active and inactive calls. Cut-off read from the data, not from the text of the source: active = GI50 up to about 1.1 µM and inactive = higher.
Experiments:
Assay in all cases: inhibition of tumour cell growth, NCI panel, 48 h
[1] = tested on: Hs-578T
[2] = tested on: A549
[3] = tested on: MOLT-4
[4] = tested on: SK-MEL-28
[5] = tested on: NCI-H23
[6] = tested on: TK-10
[7] = tested on: NCI-H226
[8] = tested on: OVCAR-4
[9] = tested on: OVCAR-8
[10] = tested on: UACC-62
[11] = tested on: SW-620
[12] = tested on: SR
[13] = tested on: SK-MEL-2
[14] = tested on: HT-29
[15] = tested on: 786-0
[16] = tested on: ACHN
[17] = tested on: MDA-MB-435
[18] = tested on: NCI-H522
[19] = tested on: BT-549

Measured: GI50

COc1cc2oc(=O)cc(C)c2c(OC)c1OC
inactive: [1] > 100 µM | [2] > 100 µM | [3] > 100 µM | [4] > 100 µM | [5] > 100 µM | [6] > 100 µM | [7] > 100 µM | [8] > 100 µM | [9] > 100 µM | [10] > 100 µM | [11] > 100 µM | [12] > 100 µM | [13] > 100 µM | [14] > 100 µM | [15] > 100 µM | [16] > 100 µM | [17] > 100 µM

COC(=O)C1C(=O)N(C)C(=O)N2CCCC12 (configuration not stated)
inactive: [1] > 100 µM | [2] > 100 µM | [3] > 100 µM | [4] 1.4 µM | [5] > 100 µM | [6] > 100 µM | [7] > 100 µM | [8] > 100 µM | [9] > 100 µM | [10] > 100 µM | [18] > 100 µM | [11] > 100 µM | [13] > 100 µM | [14] > 100 µM | [15] > 100 µM | [16] > 100 µM | [17] > 100 µM

CCCCN(CCCC)CCC(O)c1cc2c(Cl)cc(Cl)cc2c2cc(C(F)(F)F)ccc12 (configuration not stated)
inactive: [3] 8.57 µM | [4] 16.7 µM | [5] 12.4 µM | [6] 13.4 µM | [8] 4.78 µM | [9] 14.3 µM | [10] 15 µM | [18] 17.5 µM | [11] 11.3 µM | [12] 10.3 µM | [13] 16.1 µM | [14] 13.6 µM | [15] 12.9 µM | [16] 12 µM | [17] 12.6 µM

CS(=O)(=O)N1CC(CCl)c2ccc(NCCN)cc21 (configuration not stated)
inactive: [1] 27.2 µM | [2] > 100 µM | [3] > 100 µM | [4] > 100 µM | [5] 53.7 µM | [6] > 100 µM | [7] > 100 µM | [8] 58.9 µM | [9] 57.5 µM | [18] 23.7 µM | [11] > 100 µM | [13] > 100 µM | [14] > 100 µM | [15] 18.7 µM | [16] 29.9 µM | [17] > 100 µM

Clc1ccc(-c2nnc3c4nnc(-c5ccc(Cl)cc5Cl)n4c4ccccc4n23)c(Cl)c1
inactive: [2] > 100 µM | [3] > 100 µM | [4] > 100 µM | [5] > 100 µM | [6] > 100 µM | [8] > 100 µM | [9] > 100 µM | [10] > 100 µM | [18] > 100 µM | [11] > 100 µM | [13] > 100 µM | [14] > 100 µM | [15] 82.4 µM | [16] > 100 µM

CC(=O)/C=C1/C(=O)C(CC(C)C)=C1CC(C)C
inactive: [1] > 100 µM | [2] > 100 µM | [3] 92.3 µM | [4] > 100 µM | [5] > 100 µM | [6] > 100 µM | [7] > 100 µM | [8] > 100 µM | [9] > 100 µM | [10] > 100 µM | [18] > 100 µM | [11] > 100 µM | [13] > 100 µM | [14] > 100 µM | [15] > 100 µM | [16] > 100 µM | [17] > 100 µM

CCN1CC2=C(NC(=S)NC2c2cc(OC)c(OC)c(OC)c2)/C(=C/c2cc(OC)c(OC)c(OC)c2)C1 (configuration not stated)
inactive: [2] 26.7 µM | [3] 20.9 µM | [4] 13.7 µM | [5] 38.2 µM | [6] 36.1 µM | [7] 27.5 µM | [8] 75.2 µM | [9] 21.7 µM | [10] 31.8 µM | [18] 10.6 µM | [19] 46.5 µM | [11] 86.3 µM | [13] 70.8 µM | [14] 23.4 µM | [15] 28.4 µM | [16] 44.9 µM | [17] 28.3 µM

N#C/C(C(=O)Nc1ccc(Cl)cc1)=C(/N)N1CCCC1
inactive: [2] > 100 µM | [3] > 100 µM | [4] > 100 µM | [5] > 100 µM | [7] > 100 µM | [9] > 100 µM | [10] > 100 µM | [19] > 100 µM | [11] > 100 µM | [12] > 100 µM | [13] > 100 µM | [15] > 100 µM | [16] > 100 µM | [17] > 100 µM
